The values that follow come from patent US11827628B2, “Compositions and methods for inhibition of the JAK pathway” (Rigel Pharmaceuticals, Inc., priority 2005, dated 2023).

Like-named read-outs stand apart in the source and are kept apart here.

The test system of one experiment is Primary human T-cells. Put plainly: Primary Human T-Cell Proliferation Assay Stimulated with IL-2 (CellTiter-Glo). The format is cell-based. To be noted: primary human T-cell proliferation stimulated with IL-2, read-out: IC50, Example 42. An excerpt: The activity of the active compounds of the invention may further be characterized by assaying the effect of the 2,4-substituted pyrimidinediamine compounds described herein on the proliferative response of primary human T-cells. In this assay, primary human T-cells derived from peripheral blood and pre-activated through stimulation of the T-cell receptor and CD28, proliferate in culture in response to the cytokine Interleukin-2 (IL-2). This proliferative response is dependent on the activation of JAK1 and JAK3 tyrosine kinases, which phosphorylate and activate the transcription factor Stat-5. The primary human T-cells are incubated with the 2,4-substituted pyrimidinediamine compounds in the presence of IL-2 for 72 hours and at the assay endpoint intracellular ATP concentrations are measured to assess cell viability. A reduction in cell proliferation compared to control conditions is indicative of inhibition of the JAK kinase pathway. An exemplary assay of this type is described in greater detail in Example 42
Primary human T-cells derived from peripheral blood and pre-activated through stimulation of the T-cell receptor and CD28, proliferate in vitro in response to the cytokine Interleukin-2 (IL-2). This proliferative response is dependent on the activation of JAK-1 and JAK-3 tyrosine kinases, which phosphorylate and activate the transcription factor Stat-5.
Human primary T cells were prepared as follows. Whole blood was obtained from a healthy volunteer, mixed 1:1 with PBS, layered on to Ficoll Hypaque (Amersham Pharmacia Biotech, Piscataway, NJ, Catalog #17-1440-03) in 2:1 blood/PBS:ficoll ratio and centrifuged for 30 min at 4° C. at 1750 rpm. The lymphocytes at the serum: ficoll interface were recovered and washed twice with 5 volumes of PBS. The cells were resuspended in Yssel's medium (Gemini Bio-products, Woodland, CA, Catalog #400-103) containing 40 U/mL recombinant IL2 (R and D Systems, Minneapolis, MN, Catalog #202-IL (20 rig)) and seeded into a flask pre-coated with 1 μg/mL anti-CD3 (BD Pharmingen, San Diego, CA, Catalog #555336) and 5 μg/mL anti-CD28 (Immunotech, Beckman Coulter of Brea CA, Catalog #IM1376). The primary T-cells were stimulated for 3-4 days, then transferred to a fresh flask and maintained in RPMI with 10% FBS and 40 U/mL IL-2.
Primary T-cells were washed twice with PBS to remove the IL-2 and resuspended in Yssel's medium at 2×10^6 cells/mL. 50 μL of cell suspension containing 80 U/mL IL-2 was added to each well of a flat bottom 96 well black plate. For the unstimulated control, IL-2 was omitted from the last column on the plate. Compounds were serially diluted in dimethyl sulfoxide (DMSO, 99.7% pure, cell culture tested, Sigma-Aldrich, St. Louis, MO, Catalog No. D2650) from 5 mM in 3-fold dilutions, and then diluted 1:250 in Yssel's medium. 50 μL of 2× compound was added per well in duplicate and the cells were allowed to proliferate for 72 hours at 37° C.
Proliferation was measured using CellTiter-Glo® Luminescent Cell Viability Assay (Promega), which determines the number of viable cells in culture based on quantitation of the ATP present, as an indicator of metabolically active cells. The substrate was thawed and allowed to come to room temperature. After mixing the Cell Titer-Glo reagent and diluent together, 100 μL was added to each well. The plates were mixed on an orbital shaker for two minutes to induce lysis and incubated at room temperature for an additional ten minutes to allow the signal to equilibrate. Detection was performed using a Wallac Victor2 1420 multilabel counter purchased from Perkin Elmer, Shelton, CT The IC50 calculated based on the results of this assay are provided in TABLE XII.
(ATP-based viability assays read luminescence as a measure of living cells.)

Experiment [1] has as its system IL-4 stimulated expression of CD23 in human Ramos B cells (JAK-1 and JAK-3). Put plainly: Assay for Ramos B-Cell Line Stimulated with IL-4 (CD23 upregulation, FACS). Type of experiment: cell-based. The settings on record: Ramos B-cell line stimulated with IL-4, CD23 expression by FACS, read-out: IC50, Example 41. The gist of the method:
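Human Ramos B cells (5×10^4 per point, RPMI 5% serum) pre-incubated 1 h at 37 °C with compound or DMSO, then stimulated with IL-4 at 50 units/mL final for 20-24 h. CD23 upregulation measured by anti-CD23-PE staining and flow cytometry; IC50 derived.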
Background: Flow cytometry measures light scatter and fluorescence of single cells or particles in a stream.

Turning to `Cc1cnc(Nc2ccc(Cl)c(S(N)(=O)=O)c2)nc1Nc1ccc(OCC(=O)N(C)C)c(F)c1` [Compound I-142, N2-(3-Aminosulfonyl-4-chlorophenyl)-N4-(4-dimethylaminocarbonylmethoxy-3-fluorophenyl)-5-methyl-2,4-pyrimidinediamine], the IC50 (usually the concentration that inhibits the measured activity by half) in the experiment with Primary human T-cells (Homo sapiens, T-cell) was found to be 854 nM; in experiment [1] (Homo sapiens, Ramos) it was 155 nM.
For `CNC(=O)COc1ccc(Nc2nc(Nc3ccc(C)c(S(N)(=O)=O)c3)ncc2F)cc1` [Compound I-145, N2-(3-Aminosulfonyl-4-methylphenyl)-5-fluoro-N4-(4-methylaminocarbonylmethoxyphenyl)-2,4-pyrimidinediamine] the same measures were 349 nM and 542 nM.
Take `CNC(=O)COc1ccc(Nc2nc(Nc3cccc(S(N)(=O)=O)c3)ncc2F)cc1Cl` [Compound I-147, N2-(3-Aminosulfonylphenyl)-N4-(3-chloro-4-methylaminocarbonylmethoxyphenyl)-5-fluoro-2,4-pyrimidinediamine]: the IC50 worked out at 174 nM in the experiment with Primary human T-cells (Homo sapiens, T-cell) and 79.9 nM in experiment [1] (Homo sapiens, Ramos).
For `CNC(=O)COc1ccc(Nc2nc(Nc3ccc(C)c(S(N)(=O)=O)c3)ncc2F)cc1Cl` [Compound I-148, N2-(3-Aminosulfonyl-4-methylphenyl)-N4-(3-chloro-4-methylaminocarbonylmethoxyphenyl)-5-fluoro-2,4-pyrimidinediamine] the same measures were 240 nM and 61.2 nM.
Regarding `CNC(=O)COc1ccc(Nc2nc(Nc3ccc(C)c(S(N)(=O)=O)c3)ncc2C)cc1Cl` [Compound I-151, N2-(3-Aminosulfonyl-4-methylphenyl)-N4-(3-chloro-4-methylaminocarbonylmethoxyphenyl)-5-methyl-2,4-pyrimidinediamine], the IC50 was 78.3 nM with Primary human T-cells (Homo sapiens, T-cell) and 61.9 nM in experiment [1] (Homo sapiens, Ramos).
On the same counts, the results for `CNC(=O)COc1ccc(Nc2nc(Nc3ccc(Cl)c(S(N)(=O)=O)c3)ncc2F)cc1Cl` [Compound I-152, N2-(3-Aminosulfonyl-4-chlorophenyl)-N4-(3-chloro-4-methylaminocarbonylmethoxyphenyl)-5-fluoro-2,4-pyrimidinediamine] are 1540 nM and 302 nM.
On the same counts, the results for `CNC(=O)COc1ccc(Nc2nc(Nc3ccc(Cl)c(S(N)(=O)=O)c3)ncc2C)cc1Cl` [Compound I-153, N2-(3-Aminosulfonyl-4-chlorophenyl)-N4-(3-chloro-4-methylaminocarbonylmethoxyphenyl)-5-methyl-2,4-pyrimidinediamine] are 334 nM and 114 nM.
For `CNC(=O)COc1ccc(Nc2nc(Nc3ccc(S(N)(=O)=O)cc3)ncc2C)cc1F` [Compound I-154, N2-(4-Aminosulfonylphenyl)-N4-(3-fluoro-4-methylaminocarbonylmethoxyphenyl)-5-methyl-2,4-pyrimidinediamine] the same measures were 992 nM and 276 nM.
Take `C=CCNC(=O)COc1ccc(Nc2nc(Nc3ccc(S(N)(=O)=O)cc3)ncc2F)cc1` [Compound I-157, N4-(4-Allylaminocarbonylmethoxyphenyl)-N2-(4-aminosulfonylphenyl)-5-fluoro-2,4-pyrimidinediamine]: the IC50 in the experiment with Primary human T-cells (Homo sapiens, T-cell) turned out to be 1890 nM; in experiment [1] (Homo sapiens, Ramos), 246 nM.
`NS(=O)(=O)c1cccc(Nc2ncc(F)c(Nc3ccc(OCc4ccccn4)cc3)n2)c1` [Compound I-162, N2-(3-Aminosulfonylphenyl)-5-fluoro-N4-[4-(2-pyridinyl)methyleneoxyphenyl]-2,4-pyrimidinediamine]: the IC50 amounted to 136 nM in the experiment with Primary human T-cells and 51 nM in experiment [1].
For the molecule `Cc1cc(Nc2nc(Nc3ccc(S(C)(=O)=O)c(N)c3)ncc2F)ccc1OCc1ccccn1` [Compound I-168, N2-(3-Amino-4-methylsulfonylphenyl)-5-fluoro-N4-[(4-((pyridin-2-yl)methoxy)-3-methylphenyl)]-2,4-pyrimidinediamine], the IC50 in the experiment on Primary human T-cells (Homo sapiens, T-cell) is 1180 nM; in experiment [1] (Homo sapiens, Ramos), 154 nM.
As for `NS(=O)(=O)c1cccc(Nc2ncc(F)c(Nc3ccc(-c4ccccn4)c(OCF)c3)n2)c1` [Compound I-169, N2-(3-Aminosulfonylphenyl)-5-fluoro-N4-[4-(2-pyridinyl)-3-fluoromethyleneoxyphenyl]-2,4-pyrimidinediamine], the IC50 with Primary human T-cells was 137 nM; in experiment [1], 54.6 nM.
Turning to `NS(=O)(=O)c1cccc(Nc2ncc(F)c(Nc3ccc(OCc4ccccn4)c(Cl)c3)n2)c1` [Compound I-171, N2-(3-Aminosulfonylphenyl)-5-fluoro-N4-[4-(2-pyridinyl)-3-chloromethyleneoxyphenyl]-2,4-pyrimidinediamine], the IC50 in the experiment on Primary human T-cells was 415 nM; in experiment [1], 117 nM.
Take `Cc1ccc(Nc2ncc(F)c(Nc3ccc(-c4ccccn4)c(OCCl)c3)n2)cc1S(N)(=O)=O` [Compound I-174, N2-(3-Aminosulfonyl-4-methylphenyl)-5-fluoro-N4-[4-(2-pyridinyl)-3-chloromethyleneoxyphenyl]-2,4-pyrimidinediamine]: the IC50 in the experiment on Primary human T-cells is 1230 nM; in experiment [1] it was 117 nM.
For the molecule `NS(=O)(=O)c1ccc(Nc2ncc(F)c(Nc3ccc(OCc4ccccn4)c(Cl)c3)n2)cc1` [Compound I-175, N2-(4-Aminosulfonylphenyl)-5-fluoro-N4-[4-(2-pyridinyl)-3-chloromethyleneoxyphenyl]-2,4-pyrimidinediamine], the IC50 in the experiment with Primary human T-cells worked out at 3080 nM; in experiment [1], 147 nM.
On the same counts, the results for `Cc1cc(Nc2nc(Nc3ccc(S(N)(=O)=O)cc3)ncc2F)ccc1OCc1ccccn1` [Compound I-176, N2-(4-Aminosulfonylphenyl)-5-fluoro-N4-[4-(2-pyridinyl)-3-methylmethyleneoxyphenyl]-2,4-pyrimidinediamine] are 1690 nM and 259 nM.
For `NS(=O)(=O)c1cccc(Nc2ncc(F)c(Nc3cccc(OCc4cccnc4)c3)n2)c1` [Compound I-182, N2-(3-Aminosulfonylphenyl)-5-fluoro-N4-[3-(3-pyridinyl)methyleneoxyphenyl]-2,4-pyrimidinediamine] the same measures were 1130 nM and 190 nM.
For `NS(=O)(=O)c1cccc(Nc2ncc(F)c(Nc3ccc(OCc4ccncc4)cc3)n2)c1` [Compound I-193, N2-(3-Aminosulfonylphenyl)-5-fluoro-N4-[4-(4-pyridinyl)methyleneoxyphenyl]-2,4-pyrimidinediamine] the same measures were 55.6 nM and 38.2 nM.
Consider `CNS(=O)(=O)c1cc(Nc2ncc(F)c(Nc3ccc(OCc4ccncc4)cc3)n2)ccc1C` [Compound I-195, 5-Fluoro-N2-[3-(N-methylaminosulfony)-4-methylphenyl]-5-fluoro-N4-[4-(4-pyridinyl)methyleneoxyphenyl]-2,4-pyrimidinediamine], for which the IC50 in the experiment on Primary human T-cells came to 127 nM; in experiment [1], 82.6 nM.
For `Cc1cc(COc2ccc(Nc3nc(Nc4ccc(Cl)c(S(N)(=O)=O)c4)ncc3F)cc2)no1` [Compound I-220, N2-(3-Aminosulfonyl-4-chlorophenyl)-5-fluoro-N4-[4-(5-methylisoxazol-3-yl)methyleneoxyphenyl]-2,4-pyrimidinediamine] the same measures were 1070 nM and 121 nM.
